Results reported in US20250057803A1, “PRODUCTS OF MANUFACTURE AND METHODS FOR TREATING, AMELIORATING OR PREVENTING CORONAVIRUS INFECTION” (TOPELIA AUST LIMITED (ACN 652 771 670), priority 2020, published 2025).

Assays:
coronavirus COVID-19 [1] = type: in vivo; details: contact of a positive patient; after 4 days of treatment
coronavirus COVID-19 [2] = type: in vivo, human

Compound	blood result for COVID-19 virus (coronavirus COVID-19 [1])	contraction of COVID-19 under prophylaxis (coronavirus COVID-19 [2]; […], group of elderly travelers on a ship with cases)	test for the virus upon arrival home after the cruise (coronavirus COVID-19 [2]; in vivo)
CCOC(=O)C1=C[C@@H](OC(CC)CC)[C@H](NC(C)=O)[C@@H](N)C1 [osteltamivir, oseltamivir]	positive		
CCN(CC)CCCC(C)Nc1ccnc2cc(Cl)ccc12 (stereo not drawn) [chloroquine]		None contract COVID-19 coronavirus	negative
